Test results from patent US12122750B2, “AT2R antagonists and uses thereof” (Eli Lilly and Company, priority 2022, dated 2024).

Molecular target: recombinant human angiotensin-II receptor subtype 2 (hAT2R) (Homo sapiens (Human), UniProt P50052)
Assay: Competitive radioligand binding assay (SPA), hAT2R HEK293 membranes
Details: [125I]-Tyr4-Angiotensin-II, read-out: AT2R Ki
Protocol: Compound Solubilization Test and reference compounds were received as dry powder reagents, weighed, and solubilized in 100% DMSO to generate a working stock concentration of 10 mM. Membrane Preparation Protocol (hAT2R HEK293 and rAT2R HEK293) hAT2R membranes were prepared from human embryonic kidney (HEK293) cells which were stably transfected with recombinant human angiotensin-II receptor subtype 2 (hAT2R). Cells from the stable cell lines were expanded in tissue culture flasks to generate a large population of cells; cell pellet (>1 gm), and these cell pellets were stored frozen prior to initiating this membrane isolation procedure for each receptor isoform. Frozen cell pellets were thawed in ice-cold homogenization/resuspension buffer (50 mM Tris-HCl, pH 7.5) containing one Complete© protease inhibitor tablet with EDTA (Roche Diagnostics) per 50 mL buffer, and cell pellet was resuspended at a ratio of 10 mL homogenization buffer to gram of starting cell pellet. Cell suspension was homogenized with an overhead motor-driven Teflon-glass homogenizer using 15 to 20 strokes, followed by centrifugation at 1100×g for 10 minutes at 4° C. The supernatant was saved on ice, pellets were homogenized as before, and centrifuged at 1100×g for 10 minutes at 4° C. Both supernatants were combined and subsequently centrifuged at 35,000×g for 60 minutes at 4° C. The final centrifugation pellet (pellet 2) containing the isolated membranes was resuspended in buffer (4 to 5 mL/g of starting cell paste) containing protease inhibitors and quick frozen in liquid nitrogen prior to storage at -80° C. Protein concentration was determined using a BCA kit (ThermoScientific, Inc.) with bovine serum albumin (BSA) as standard. […] The assays were performed with a scintillation proximity assay (SPA) method using polyvinyltoluene (PVT) wheat germ agglutinin-coupled SPA beads (Perkin Elmer Cat. #RPNQ0001). Assay buffer containing BSA (50 mM Tris-HCl, pH 7.5, 150 mM NaCl, 0.1% w/v fatty-acid free BSA) was used for preparing radioligand, membrane and SPA bead reagent dilution to working stock concentrations. Reference control and test compounds were diluted to obtain ten-point concentration response curves using a four-fold serial dilution protocol onto assay plates, dispensed acoustically from DMSO stock using automated ECHO instrument technology (Labcyte, Inc.). Concentration response curves were routinely generated with the highest final assay concentration for the reference angiotensin-II control at 50 nM, and the highest final assay concentration for the test compounds at 50 μM. […] The hAT2R membrane was combined with PVT-WGA SPA beads to obtain a final assay concentration of 0.25 μg/well hAT2R membrane+0.1 mg/well PVT-WGA SPA bead. And the hAT1R membrane PVT-WGA SPA bead final concentrations was 0.5 μg/well hAT1R membrane+0.1 mg/well PVT-WGA SPA bead. […] For all assays, radioligand addition was followed by the addition of membrane-SPA bead mixture, i.e., the hAT2R membrane-SPA bead mixture (30 μL), the rAT2R membrane-SPA bead mixture, or the AT1R membrane-SPA bead mixture (30 μL) into the assay plate. All dispensing steps were added using a Multiflo FX (Biotek, Inc.) bulk dispensing instrument. After reagent addition steps, assay plates were sealed, and plate contents mixed for one minute on a benchtop micro-plate shaker. Following a 10-hour incubation at room temperature to allow for bead settling and radioligand binding, bound radioactivity was quantitated using a Microbeta Trilux scintillation counter (Perkin Elmer) and expressed as counts per minute (CPM). The unlabeled angiotensin-II control was included on each plate as an experimental assay reference. […] Data Analysis Procedures Compounds were tested in a 10-point concentration response curve (CRC) format, with each plate containing the positive control angiotensin-II positive reference compound, and experimental compounds.

Chain of recombinant human angiotensin-II receptor subtype 2 (hAT2R) (P50052 whole entry): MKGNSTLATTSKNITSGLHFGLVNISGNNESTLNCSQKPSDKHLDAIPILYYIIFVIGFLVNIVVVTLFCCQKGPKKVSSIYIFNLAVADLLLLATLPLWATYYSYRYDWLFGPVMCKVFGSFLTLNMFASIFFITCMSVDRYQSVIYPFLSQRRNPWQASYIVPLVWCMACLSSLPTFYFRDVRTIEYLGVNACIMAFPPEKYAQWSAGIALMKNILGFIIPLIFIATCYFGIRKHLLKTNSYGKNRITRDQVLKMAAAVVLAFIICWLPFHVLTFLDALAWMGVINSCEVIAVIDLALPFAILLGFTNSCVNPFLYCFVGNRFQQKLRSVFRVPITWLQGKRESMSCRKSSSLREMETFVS

SMILES | Ki
CN(C(=O)N1CCC(CC(=O)N(c2ccccc2)c2ccccc2F)(C(=O)O)CC1)C(C1CC1)C1CC1 [Example 55, 1-[dicyclopropylmethyl(methyl)carbamoyl]-4-[2-(N-(2-fluorophenyl)anilino)-2-oxo-ethyl]piperidine-4-carboxylic acid] | 3.11 nM
O=C(N1CCC(CC(=O)N(c2ccccc2)c2ccccc2F)(C(=O)O)CC1)N1CCc2ccccc21 [Example 56, 4-[2-(N-(2-fluorophenyl)anilino)-2-oxo-ethyl]-1-(indoline-1-carbonyl)piperidine-4-carboxylic acid] | 2.99 nM
O=C(N1CCC(CC(=O)N(c2ccccc2)c2cccc(F)c2)(C(=O)O)CC1)N1CCc2ccccc21 [Example 57, 4-[2-(N-(3-fluorophenyl)anilino)-2-oxo-ethyl]-1-(indoline-1-carbonyl)piperidine-4-carboxylic acid] | 7.82 nM
O=C(N1CCC(CC(=O)N(c2ccccc2)c2ccc(F)cc2)(C(=O)O)CC1)N1CCc2ccccc21 [Example 58, 4-[2-(N-(4-fluorophenyl)anilino)-2-oxo-ethyl]-1-(indoline-1-carbonyl)piperidine-4-carboxylic acid] | 9.86 nM
O=C(N1CCC(CC(=O)N(c2ccccc2F)c2ccccc2F)(C(=O)O)CC1)N1CCc2ccccc21 [Example 59, 4-[2-(2-fluoro-N-(2-fluorophenyl)anilino)-2-oxo-ethyl]-1-(indoline-1-carbonyl)piperidine-4-carboxylic acid] | 4.23 nM
O=C(N1CCC(CC(=O)N(c2cccc(F)c2)c2ccccc2F)(C(=O)O)CC1)N1CCc2ccccc21 [Example 60, 4-[2-(3-fluoro-N-(2-fluorophenyl)anilino)-2-oxo-ethyl]-1-(indoline-1-carbonyl)piperidine-4-carboxylic acid] | 3.18 nM
O=C(N1CCC(CC(=O)N(c2ccc(F)cc2)c2ccccc2F)(C(=O)O)CC1)N1CCc2ccccc21 [Example 61, 4-[2-(4-fluoro-N-(2-fluorophenyl)anilino)-2-oxo-ethyl]-1-(indoline-1-carbonyl)piperidine-4-carboxylic acid] | 3.73 nM
CN(C(=O)N1CCC(CC(=O)N(c2ccc(F)cc2)C2CCCCC2)(C(=O)O)CC1)c1ccc(F)cc1 [compound 21, 4-[2-(N-cyclohexyl-4-fluoro-anilino)-2-oxo-ethyl]-1-[(4-fluorophenyl)-methyl-carbamoyl]piperidine-4-carboxylic acid] | 4.01 nM
CC(C)c1ccc(N(C(=O)CC2(C(=O)O)CCN(C(=O)N(C)c3ccc(F)cc3)CC2)c2ccccc2)cc1 [compound 28, 1-[(4-fluorophenyl)-methyl-carbamoyl]-4-[2-(N-(4-isopropylphenyl)anilino)-2-oxo-ethyl]piperidine-4-carboxylic acid] | 3.39 nM
Cc1ccc(N(C(=O)CC2(C(=O)O)CCN(C(=O)N(C)c3ccc(F)cc3)CC2)c2ccccc2)cc1 [compound 29, 1-[(4-fluorophenyl)-methyl-carbamoyl]-4-[2-oxo-2-[N-(p-tolyl)anilino]ethyl]piperidine-4-carboxylic] | 3.11 nM

Other lines, results leading:

Ki | SMILES
2.11 nM | CN(C(=O)N1CCC(CC(=O)N(c2ccccc2)C2(C3CC3)CC2)(C(=O)O)CC1)c1ccc(F)cc1 [compound 20, 4-[2-(N-(1-cyclopropylcyclopropyl)anilino)-2-oxo-ethyl]-1-[(4-fluorophenyl)-methyl-carbamoyl]piperidine-4-carboxylic acid]
0.573 nM | CC1CCCC(N(C(=O)CC2(C(=O)O)CCN(C(=O)N(C)c3ccc(F)cc3)CC2)c2ccccc2)C1 (stereo not drawn) [compound 22, 1-[(4-fluorophenyl)-methyl-carbamoyl]-4-[2-(N-(3-methyl-cyclohexyl)anilino)-2-oxo-ethyl]piperidine-4-carboxylic acid]
0.823 nM | Cc1cccc(N(C(=O)CC2(C(=O)O)CCN(C(=O)N(C)c3ccc(F)cc3)CC2)c2ccccc2)c1 [compound 23, 1-[(4-fluorophenyl)-methyl-carbamoyl]-4-[2-[N-(m-tolyl)anilino]-2-oxo-ethyl]piperidine-4-carboxylic acid]
0.774 nM | CN(C(=O)N1CCC(CC(=O)N(c2ccccc2)c2cccc(F)c2)(C(=O)O)CC1)c1ccc(F)cc1 [compound 24, 4-[2-(N-(3-fluorophenyl)anilino)-2-oxo-ethyl]-1-[(4-fluorophenyl)-methyl-carbamoyl]piperidine-4-carboxylic acid]
2.7 nM | COc1cccc(N(C(=O)CC2(C(=O)O)CCN(C(=O)N(C)c3ccc(F)cc3)CC2)c2ccccc2)c1 [compound 25, 1-[(4-fluorophenyl)-methyl-carbamoyl]-4-[2-(N-(3-methoxyphenyl)anilino)-2-oxo-ethyl]piperidine-4-carboxylic acid]
0.4 nM | CN(C(=O)N1CCC(CC(=O)N(c2cccc(F)c2)C2CCCCC2)(C(=O)O)CC1)c1ccc(F)cc1 [compound 27, 4-[2-(N-cyclohexyl-3-fluoro-anilino)-2-oxo-ethyl]-1-[(4-fluorophenyl)-methyl-carbamoyl]piperidine-4-carboxylic acid]
1.89 nM | CN(C(=O)N1CCC(CC(=O)N(c2ccccc2)c2ccc(Cl)cc2)(C(=O)O)CC1)c1ccc(F)cc1 [compound 31, -[2-(N-(4-chlorophenyl)anilino)-2-oxo-ethyl]-1-[(4-fluorophenyl)-methyl-carbamoyl]piperidine-4-carboxylic acid]

Molecular target: recombinant human angiotensin-II receptor subtype I (hAT1R) (Homo sapiens (Human), UniProt P30556)
Assay: Competitive radioligand binding assay (SPA), hAT1R/CHO membranes
Details: [125I]-Tyr4-Angiotensin-II, read-out: AT1R Ki
Protocol: Membranes hATIR/CHO were Purchased from PerkinElmer, Inc.
Cellular membranes prepared from Chinese hamster ovary (CHO) cells which expressed recombinant human angiotensin-II receptor subtype I (hAT1R), were purchased from PerkinElmer (Catalog Number ES-072-M400UA).
Receptor Binding Protocol
The assays were performed with a scintillation proximity assay (SPA) method using polyvinyltoluene (PVT) wheat germ agglutinin-coupled SPA beads (Perkin Elmer Cat. #RPNQ0001). Assay buffer containing BSA (50 mM Tris-HCl, pH 7.5, 150 mM NaCl, 0.1% w/v fatty-acid free BSA) was used for preparing radioligand, membrane and SPA bead reagent dilution to working stock concentrations. Reference control and test compounds were diluted to obtain ten-point concentration response curves using a four-fold serial dilution protocol onto assay plates, dispensed acoustically from DMSO stock using automated ECHO instrument technology (Labcyte, Inc.). Concentration response curves were routinely generated with the highest final assay concentration for the reference angiotensin-II control at 50 nM, and the highest final assay concentration for the test compounds at 50 μM. […] The hAT2R membrane was combined with PVT-WGA SPA beads to obtain a final assay concentration of 0.25 μg/well hAT2R membrane+0.1 mg/well PVT-WGA SPA bead. And the hAT1R membrane PVT-WGA SPA bead final concentrations was 0.5 μg/well hAT1R membrane+0.1 mg/well PVT-WGA SPA bead. […] For all assays, radioligand addition was followed by the addition of membrane-SPA bead mixture, i.e., the hAT2R membrane-SPA bead mixture (30 μL), the rAT2R membrane-SPA bead mixture, or the AT1R membrane-SPA bead mixture (30 μL) into the assay plate. All dispensing steps were added using a Multiflo FX (Biotek, Inc.) bulk dispensing instrument. After reagent addition steps, assay plates were sealed, and plate contents mixed for one minute on a benchtop micro-plate shaker. Following a 10-hour incubation at room temperature to allow for bead settling and radioligand binding, bound radioactivity was quantitated using a Microbeta Trilux scintillation counter (Perkin Elmer) and expressed as counts per minute (CPM). The unlabeled angiotensin-II control was included on each plate as an experimental assay reference.
Compounds were tested in a 10-point concentration response curve (CRC) format, with each plate containing the positive control angiotensin-II positive reference compound, and experimental compounds. Maximum binding response (Max) was determined in 32 control wells per plate using assay buffer treatment only, and the minimum binding controls or nonspecific binding response (Min) was also determined in 32 wells per plate by the treatment with 50 nM angiotensin-II. All test sample concentration responses were normalized to the control response and calculated as a percent of the maximal response after correcting for nonspecific binding as shown below: % Specific inhibition=100%−[(CPM−Min)/(Max−Min)×100%]
Percent specific binding (y-axis) was plotted versus the log concentration of compound (x-axis).
Binding affinities for compounds of the present disclosure were determined according to the assay described herein.
Binding affinities for compounds of the present disclosure were determined according to the assay described above.

Chain of recombinant human angiotensin-II receptor subtype I (hAT1R) (P30556 whole entry): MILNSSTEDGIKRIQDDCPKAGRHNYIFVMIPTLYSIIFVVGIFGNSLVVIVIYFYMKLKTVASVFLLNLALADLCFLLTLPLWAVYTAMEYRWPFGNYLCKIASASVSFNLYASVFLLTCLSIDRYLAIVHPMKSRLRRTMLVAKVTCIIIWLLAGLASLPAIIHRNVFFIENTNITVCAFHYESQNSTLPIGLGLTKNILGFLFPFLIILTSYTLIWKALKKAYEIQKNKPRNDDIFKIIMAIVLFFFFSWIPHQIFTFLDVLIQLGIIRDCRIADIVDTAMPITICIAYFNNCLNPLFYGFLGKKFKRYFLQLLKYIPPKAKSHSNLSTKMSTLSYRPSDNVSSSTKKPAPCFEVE

SMILES | Ki
CN(C(=O)N1CCC(CC(=O)N(c2ccccc2)[C@H]2CCCC(F)(F)C2)(C(=O)O)CC1)c1ccc(F)cc1 (single isomer, unassigned) [44B (isomer 2)] | 37300 nM
